Measured values reported in US20140329863A1 (priority 2011, published 2014).
Read-outs that look alike come from different tables or passages of the source. Marks after values point to notes of the source that are not given here.

What was measured:
[1] = tested on: PrP^Sc in dividing ScN2a-cl3 cells; type: cell-based, mouse; parameters: Dividing ELISA pEC50 (μM) 1st Expt. / Dividing ELISA pEC50 (μM) 2nd Expt. / Dividing ELISA pEC50 (μM) 3rd Expt. / Dividing ELISA pEC50 (μM) Mean: unit not given here
[2] = tested on: PrP^Sc in nondividing ScN2a-cl3 cells; type: cell-based, mouse
[3] = tested on: N2a-cl3 cells; assay: cells; conditions: Mus musculus
[4] = Hepatic microsomal stability, mouse; conditions: mouse liver microsomes
[5] = tested on: PrP^C in T98G cells; type: cell-based, human; conditions: read-out: EC50 (μM) ELISA potency, PrP^C in T98G cells
[6] = Hepatic microsomal stability, human; conditions: human liver microsomes
[7] = tested on: PrP^Sc in ScN2a-cl3 cells; type: cell-based, mouse; conditions: Western immunoblots
[8] = tested on: N2a-cl3 cells
[9] = read-out: Non-Dividing ELISA EC50 (μM) Mean (n = 3), ScN2a-c13 non-dividing cells, mean n = 3
[10] = N2a-cl3, read-out: Dividing Calcein EC50 (μM) Mean (n = 3)
[11] = read-out: Dividing ELISA EC50 (μM) 1st Expt., ScN2a-cl3 dividing cells, 1st determination
[12] = read-out: Dividing ELISA EC50 (μM) 2nd Expt., ScN2a-cl3 dividing cells, 2nd determination
[13] = read-out: Dividing ELISA EC50 (μM) 3rd Expt., ScN2a-cl3 dividing cells, 3rd determination
[14] = read-out: Dividing ELISA EC50 (μM) Mean, ScN2a-cl3 dividing cells, mean of three determinations
[15] = ScN2a-cl3 dividing cells, 1st determination
[16] = ScN2a-cl3 dividing cells, 2nd determination
[17] = ScN2a-cl3 dividing cells, 3rd determination
[18] = ScN2a-cl3 dividing cells, mean of three determinations
[19] = Table 29, 2-AMT analogs tested for potency, usually n = 3 or more

Structure (SMILES): COc1ccnc(Nc2nc(-c3ccncc3)cs2)c1 [IND111, (4-Methoxy-pyridin-2-yl)-(4-pyridin-4-yl-thiazol-2-yl)-amine]
- EC50 ([1]; AMT analogs tested for potency): 0.605 µM
- melting point: 190 to 192 °C

Structure (SMILES): COc1ccc(-c2csc(Nc3ccc(C)cn3)n2)cc1OC [compound 14, [4-(3,4-dimethoxyphenyl)-thiazol-2-yl]-(5-methylpyridin-2-yl)-amine]
- EC50 [2, 9]: > 32 µM
- EC50 [3, 10]: > 32 µM
- EC50 [1, 11]: 0.974 µM
- EC50 [1, 12]: 0.577 µM
- EC50 [1, 13]: 0.815 µM
- EC50 [1, 14]: 0.789 µM

Structure (SMILES): Cc1ccnc(Nc2nc(-c3cc(-c4ccccc4)no3)cs2)c1 [compound 43, (4-Methylpyridin-2-yl)-[4-(3-phenylisoxazol-5-yl)-thiazol-2-yl]-amine]
- EC50 [2, 9]: > 32 µM
- EC50 [3, 10]: > 32 µM
- Dividing ELISA pEC50 (μM) 1st Expt. [1, 15]: 5.98
- Dividing ELISA pEC50 (μM) 2nd Expt. [1, 16]: 5.96
- Dividing ELISA pEC50 (μM) 3rd Expt. [1, 17]: 5.78
- Dividing ELISA pEC50 (μM) Mean [1, 18]: 5.90
- EC50 [1, 11]: 1.05 µM
- EC50 [1, 12]: 1.1 µM
- EC50 [1, 13]: 1.67 µM
- EC50 [1, 14]: 1.28 µM

Structure (SMILES): COc1ccc(-c2csc(Nc3ccc(C)cn3)n2)c(OC)c1 [IND74, [4-(2,4-Dimethoxy-phenyl)-thiazol-2-yl]-(5-methyl-pyridin-2-yl)-amine]
- EC50 ([1]; AMT analogs tested for potency): 3.13 µM
- EC50 [1, 19]: 3.13 µM
- melting point: 157 to 158 °C

Structure (SMILES): COc1cccc(N2CCN(C(=O)c3cc(C)ccc3OC)CC2)c1 [IND126339]
- Hepatic Extraction Ratio Mouse ([4]; predicted hepatic extraction): 0.95
- half-life at 1 μM ([4]; mouse, pH 7.4): 3.2 min
- EC50 [5]: 0.248 µM
- Hepatic Extraction Ratio Human ([6]; predicted hepatic extraction): 0.87
- half-life at 1 μM ([6]; human, pH 7.4): 10.3 min

Structure (SMILES): Cc1ccc(Nc2nc(-c3ccc(OC(F)(F)F)cc3)cs2)nc1 [IND26, (5-Methyl-pyridin-2-yl)-[4-(4-trifluoromethoxy-phenyl)-thiazol-2-yl]-amine]
- EC50 ([1]; AMT analogs tested for potency): > 10 µM
- EC50 [1, 19]: > 10 µM
- melting point: 205 to 207 °C

Structure (SMILES): OCCNCc1cc(Br)ccc1OCc1ccc(Cl)cc1Cl [IND-0033452]
- EC50 ([7]; ScN2a-cl3 cells, read-out: EC50 (nM): Western): 1990 nM
- EC50 ([7]; read-out: Potency (nM) Western (EC50), dividing ScN2a-cl3 cells): 1990 nM
- EC50 ([1]; dividing ScN2a-cl3 cells, read-out: EC50 (nM): ELISA): 2.85 µM
- EC50 ([1]; read-out: Potency (nM) ELISA (EC50), PrP^Sc ELISA, dividing ScN2a-cl3 cells): 2.85 µM
- Calcein [8]: MW: 405.1 EC50 (nM): ELISA: 2850 Calcein: 27% Western: 1993
- Calcein (value printed in %) ([8]; mouse): 27%

Structure (SMILES): c1ccc(-c2cc(-c3csc(Nc4cc5ccccc5cn4)n3)on2)cc1 [compound 35, Isoquinolin-3-yl-[4-(3-phenylisoxazol-5-yl)-thiazol-2-yl]-amine]
- EC50 [2, 9]: > 32 µM
- EC50 [3, 10]: > 32 µM
- Dividing ELISA pEC50 (μM) 1st Expt. [1, 15]: 5.93
- Dividing ELISA pEC50 (μM) 2nd Expt. [1, 16]: 6.24
- Dividing ELISA pEC50 (μM) 3rd Expt. [1, 17]: 6.18
- Dividing ELISA pEC50 (μM) Mean [1, 18]: 6.12
- EC50 [1, 11]: 1.16 µM
- EC50 [1, 12]: 0.573 µM
- EC50 [1, 13]: 0.663 µM
- EC50 [1, 14]: 0.799 µM

Structure (SMILES): CN(C)c1ccc2c(c1)OC(N)=C(C#N)C2c1cccc(F)c1 (stereo not shown) [IND17990]
- EC50 [5]: 0.031 µM

Structure (SMILES): Cc1ccc(Nc2nc3c(s2)Cc2ccccc2-3)nc1 [compound 38, (8H-Indeno[1,2-d]thiazol-2-yl)-(5-methylpyridin-2-yl)-amine]
- EC50 [2, 9]: > 32 µM
- EC50 [3, 10]: > 32 µM
- Dividing ELISA pEC50 (μM) 1st Expt. [1, 15]: 5.70
- Dividing ELISA pEC50 (μM) 2nd Expt. [1, 16]: 5.52
- Dividing ELISA pEC50 (μM) 3rd Expt. [1, 17]: 5.63
- Dividing ELISA pEC50 (μM) Mean [1, 18]: 5.62
- EC50 [1, 11]: 1.99 µM
- EC50 [1, 12]: 2.99 µM
- EC50 [1, 13]: 2.34 µM
- EC50 [1, 14]: 2.44 µM

Structure (SMILES): CCOC(=O)c1[nH]c2c(c1C)C(=O)CC(c1ccccc1)C2 (stereo not shown) [IND126432]
- EC50 [5]: 0.144 µM

Structure (SMILES): CN(C)c1ccc2c(c1)OC(N)=C(C#N)C2c1cccs1 (stereo not shown) [IND23846]
- EC50 [5]: 0.21 µM

Structure (SMILES): Cc1ccc2[nH]c3c(c2c1)CCCC3NCCCN(C)C (stereo not shown) [IND-23308]
- HTS % inhibition ([2]; HTS, nondividing cells): 70%
- Inhibition of Baseline PrP^5c (%) Non-dividing Cells ELISA ([2]; SPC assay, nondividing cells): 94^d %
- SPC % inhibition ([2]; SPC assays, nondividing cells): 94%
- EC50 ([2]; read-out: EC50, PrP^Sc ELISA in stationary-phase (nondividing) cells): 7.5 µM
- EC50 ([3]; N2a-cl3, read-out: potency in cell viability, dividing cells): > 10 µM
- EC50 ([3]; N2a-cl3, read-out: potency in cell viability, stationary-phase cells): > 10 µM
- Inhibition of Baseline PrP^5c (%) Dividing Cells ELISA ([1]; SPC assay, dividing cells): 88%
- EC50 ([1]; read-out: EC50, PrP^Sc ELISA in dividing ScN2a-c13 cells): 1.58 µM
- Dividing Cells V (cell viability percentages) [8]: 30%
- Effect on cell viability (EC50) [8]: no effect on cell viability
- Non-dividing Cells V (cell viability percentages) [8]: 12%

Structure (SMILES): Cc1nc2sccn2c1-c1csc(Nc2ccc(N(C)C)nc2)n1 [IND126306]
- EC50 [5]: 0.217 µM
